“Also recorded” adds a separate entry of the source. Blank lines part the entries; values can stand above or below the molecule they belong to.
Key:
[1] = UV-visible absorption spectra; assay type: physicochemical; details: for λabs of the conjugate: conjugate with sheep anti-mouse IG
Experimental: (§1) UV-visible absorption spectra were recorded on a Varian Cary 4000 UV-Vis spectrophotometer, and fluorescence spectra on a Varian Cary Eclipse fluorescence spectrophotometer. Reactions were carried out with magnetic stirring in Schlenk flasks equipped with septa or reflux condensers with bubble-counters under argon using a standard manifold with vacuum and argon lines. The MICROTOF spectrometer equipped with ESI ion source Apollo and direct injector with LC autosampler Agilent RR 1200 was used for obtaining mass spectra and high resolution mass-spectra (ESI-HRMS). ESI-HRMS were obtained also on APEX IV spectrometer (Bruker). ESI spectra were also obtained on a Varian 500MS spectrometer in some cases. HPLC system (Knauer): Smartline pump 1000 (2×), UV detector 2500, column thermostat 4000 (25° C.), mixing chamber, injection valve with 20 and 100 μL loop for analytical and preparative columns, respectively; 6-port-3-channel switching valve; analytical column: Eurospher-100 C18, 5 μm, 250×4 mm, 1.2 mL/min; preparative column: Eurospher-100-5 C18, 5 μm, 250×8 mm, 4 mL/min; solvent A: water+0.1% v/v trifluoroacetic acid (TFA); solvent B: CH3CN+0.1% v/v TFA; detection at 636 nm (if not stated otherwise). Normal phase analytical TLC was performed on MERCK ready-to-use plates with silica gel 60 (F254).

[2] = Fluorescence spectra, quantum yield and excited state lifetime; assay type: physicochemical; details: for λem of the conjugate / Φfl. of the conjugate: conjugate with sheep anti-mouse IG; for Φfl. of the conjugate / Φfl.: as fraction; for fluorescence quantum yield of the antibody conjugates obtained from the dye: after attaching to antibodies
Experimental: as §1

Solubility (qualitative) = assay type: physicochemical; details: for solubility in other solvents and buffers: solvents named in the value
[3] = commercial dyes, solvent not stated; cited from earlier work

SMILES: CC1(C)C=C(CS(=O)(=O)O)c2cc3cc(-c4ccncc4)c(=O)oc3cc2N1CCCC(=O)ON1C(=O)CCC1=O [Compound 20-NHS, reference compound]
λabs of the conjugate ([1]; PBS buffer at pH 7.4): 437 nm | λem of the conjugate ([2]; PBS buffer at pH 7.4): 512 nm | Φfl. of the conjugate ([2]; PBS buffer at pH 7.4): 0.18

SMILES: CN(CCCC(=O)O)C(=O)c1c(F)c(F)c(F)c(F)c1C1=c2cc3c4c(c2Oc2c1cc1c5c2CCCN5C(C)(C)C=C1COP(=O)(O)O)CCC[N+]=4C(C)(C)C=C3COP(=O)([O-])O [Compound 26-H]
ε · 10^−4 ([1]; H2O): 7.5 M^−1 cm^−1 | λmax (abs.) ([1]; H2O): 635 nm | Φfl (fluorescence quantum yield) ([2]; H2O): 83% | λmax (fl.) ([2]; H2O): 655 nm | τ1 (lifetime of the excited state) ([2]; H2O, monoexponential fit): 3.0 ns | fluorescence quantum yield of the antibody conjugates obtained from the dye [2]: 51% | solubility in other solvents and buffers (Solubility (qualitative)): well-soluble in aq. NaHCO3, alkali, Et3N, and PBS buffers, MeOH; also recorded: insoluble in acetone, CH3CN, chloroform

SMILES: CN(CCCC(=O)O)C(=O)c1c(F)c(F)c(F)c(F)c1C1=c2cc3c4c(c2Oc2c1cc1c5c2CCCN5C(C)(C)C=C1CO)CCC[N+]=4C(C)(C)C=C3CO [Compound 24-H]
ε · 10^−4 ([1]; H2O): 8.6 M^−1 cm^−1 | λmax (abs.) ([1]; H2O): 632 nm | Φfl (fluorescence quantum yield) ([2]; H2O): 85% | λmax (fl.) ([2]; H2O): 654 nm | fluorescence quantum yield of the antibody conjugates obtained from the dye [2]: 66% | solubility in aqueous buffers (Solubility (qualitative); aqueous buffers): low solubility in aqueous buffers | solubility in other solvents and buffers (Solubility (qualitative)): well-soluble in MeOH, CH3CN, and chlorinated solvents | Remarks: solubility in water (Solubility (qualitative); water): Limited solubility in water | solubility in water (Solubility (qualitative); water): slightly soluble in water

SMILES: CC(C)(C)OC(=O)CCCN1c2cc3oc(=O)c(-c4ccncc4)cc3cc2C(COP(=O)(OC(C)(C)C)OC(C)(C)C)=CC1(C)C [Compound 10]
ε ([1]; MeOH): 30700 M⁻¹ cm⁻¹ | ε · 10^−4 ([1]; MeOH): 3.07 M^−1 cm^−1 | λmax (abs.) ([1]; MeOH): 430 nm | fluorescence quantum yields (in words) [2]: high | Φfl (fluorescence quantum yield) ([2]; MeOH): 82% | λmax (fl.) ([2]; MeOH): 501 nm | Φfl. ([2]; MeOH): 0.82 | Remarks: solubility in water (Solubility (qualitative); water): Low solubility in water

SMILES: CCOC(=O)CCCN1c2cc3oc(=O)c(-c4ccncc4)cc3cc2C(C)=CC1(C)C [Compound 18, reference compound]
ε ([1]; MeOH): 33400 M⁻¹ cm⁻¹ | ε · 10^−4 ([1]; MeOH): 3.34 M^−1 cm^−1 | λmax (abs.) ([1]; MeOH): 437 nm | fluorescence quantum yields (in words) [2]: high | Φfl (fluorescence quantum yield) ([2]; MeOH): 77% | λmax (fl.) ([2]; MeOH): 507 nm | Φfl. ([2]; MeOH): 0.77 | Remarks: solubility in water (Solubility (qualitative); water): Low solubility in water

SMILES: CC1(C)C=C(CS(=O)(=O)O)c2cc3c(C(F)(F)F)cc(=O)oc3cc2N1CCCCCC(=O)ON1C(=O)CCC1=O.CCN(CC)CC [Alexa Fluor™ 430]
absorption maximum [3]: 434 nm | emission maximum [3]: 539 nm

Continued, values first:

ε · 10^−4 ([1]; PBS (7.4)): 2.27 M^−1 cm^−1 | λmax (abs.) ([1]; PBS (7.4)): 436 nm | ε ([1]; PBS buffer at pH 7.4): 22700 M⁻¹ cm⁻¹ | Stokes shift [2]: 79 nm | fluorescence quantum yields (in words) [2]: high | Φfl (fluorescence quantum yield) ([2]; PBS (7.4)): 68% | λmax (fl.) ([2]; PBS (7.4)): 515 nm | τ1 (lifetime of the excited state) ([2]; PBS (7.4)): 3.3 ns | Φfl. ([2]; PBS buffer at pH 7.4): 0.68 | fluorescence quantum yield of the antibody conjugates obtained from the dye [2]: 30%
SMILES: CC1(C)C=C(COP(=O)(O)O)c2cc3cc(-c4ccncc4)c(=O)oc3cc2N1CCCC(=O)O [Compound 11]

λabs of the conjugate ([1]; PBS buffer at pH 7.4): 439 nm | λem of the conjugate ([2]; PBS buffer at pH 7.4): 513 nm | Φfl. of the conjugate ([2]; PBS buffer at pH 7.4): 0.30
SMILES: CC1(C)C=C(COP(=O)(O)O)c2cc3cc(-c4ccncc4)c(=O)oc3cc2N1CCCC(=O)ON1C(=O)CCC1=O [Compound 12]

ε ([1]; MeOH): 25900 M⁻¹ cm⁻¹ | ε · 10^−4 ([1]; MeOH): 2.59 M^−1 cm^−1 | λmax (abs.) ([1]; MeOH): 436 nm | ε · 10^−4 ([1]; PBS (7.4)): 3.12 M^−1 cm^−1 | λmax (abs.) ([1]; PBS (7.4)): 436 nm | ε ([1]; PBS buffer at pH 7.4): 31200 M⁻¹ cm⁻¹ | fluorescence quantum yields (in words) [2]: high | Φfl (fluorescence quantum yield) ([2]; MeOH): 56% | λmax (fl.) ([2]; MeOH): 510 nm | Φfl. ([2]; MeOH): 0.56 | Φfl (fluorescence quantum yield) ([2]; PBS (7.4)): 57% | λmax (fl.) ([2]; PBS (7.4)): 515 nm | Φfl. ([2]; PBS buffer at pH 7.4): 0.57 | fluorescence quantum yield of the antibody conjugates obtained from the dye [2]: 18%
SMILES: CC1(C)C=C(CS(=O)(=O)O)c2cc3cc(-c4ccncc4)c(=O)oc3cc2N1CCCC(=O)O [Compound 20-H, reference compound]

— patent publication US9164086B2, “Fluorescent dyes with phosphorylated hydroxymethyl groups and their use in light microscopy and imaging techniques” (Max-Planck-Gesellschaft zur Foerderung der Wissenschaften …, priority 2011, dated 2015)
